Reference: patent publication US11045457B2, “Piperidinyl-3-(aryloxy)propanamides and propanoates” (priority 2018, dated 2021)

Key:
SSTR4 [1] = biological target: T1, SSTR4 (Homo sapiens (Human), UniProt P31391); assay: Inhibition of forskolin stimulated cAMP in CHO-K1 cells overexpressing SSTR4; type: cell-based; details: for EC50: read-out: SSTR4 Activity pEC50 (converted)
Summary of the method: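 Read-out is a HTRF LANCE Ultra cAMP competition using Eu-labelled streptavidin and biotin-cAMP, incubated 60 min at room temperature. It followed a 30 min room-temperature exposure of Kreb's Ringer-washed cells to compound plus forskolin. Potency is expressed as pEC50.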

SSTR4 [2] = biological target: T1, SSTR4; assay: SSTR4 I-125 somatostatin competition binding assay (membranes from CHO-K1 cells overexpressing SSTR4); details: competition with I-125 labeled somatostatin; for IC50: read-out: SSTR4 Binding pIC50 (converted)
Description: Membranes from CHO-K1 cells overexpressing SSTR4 are purchased from Perkin Elmer (catalog number ES-524-M400UA). Test compounds are suspended in DMSO and then diluted in assay buffer (25 mM HEPES pH 7.4, 10 mM MgCl2, 1 mM CaCl2), 0.5% BSA) plus 0.2 nM I-125 labeled somatostatin (Perkin Elmer catalog number NEX389). […] Then 1 μg of SSTR4 membranes in 50 μL assay buffer are added per well. The Plate is incubated for 60 minutes at room temperature. FilterMat A filters (Perkin Elmer catalog number 1450-421) are pre-soaked in 0.5% PEI (Sigma catalog number P3143). The contents of the assay plate are transferred to filters with a TomTech harvester and washed 5 times with 20 mM HEPES, 100 mM NaCl. The filters are dried in a microwave oven then transferred to sample bag containing a scintillator sheet (Perkin Elmer catalog number 1450-441). The scintillator sheets are melted to filters using a heat block. The filters are then read in a MicroBeta scintillation counter. Binding Ki curves are generated using Activity Base for Screening Data Management and the results are reported as pIC50.

SSTR1 = SSTR1 (Homo sapiens (Human), UniProt P30872); assay: SSTR1 I-125 somatostatin competition binding assay for selectivity versus SSTR4 (membranes from CHO-K1 cells overexpressing SSTR1); details: for SSTR1 Binding pIC50: competition with I-125 labeled somatostatin, CHO-K1 SSTR1 membranes;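 for all read-outs here: Filter-based radioligand binding, bound label counted by scintillation after 60 min incubation at room temperature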
SSTR1, sequence (P30872 whole entry): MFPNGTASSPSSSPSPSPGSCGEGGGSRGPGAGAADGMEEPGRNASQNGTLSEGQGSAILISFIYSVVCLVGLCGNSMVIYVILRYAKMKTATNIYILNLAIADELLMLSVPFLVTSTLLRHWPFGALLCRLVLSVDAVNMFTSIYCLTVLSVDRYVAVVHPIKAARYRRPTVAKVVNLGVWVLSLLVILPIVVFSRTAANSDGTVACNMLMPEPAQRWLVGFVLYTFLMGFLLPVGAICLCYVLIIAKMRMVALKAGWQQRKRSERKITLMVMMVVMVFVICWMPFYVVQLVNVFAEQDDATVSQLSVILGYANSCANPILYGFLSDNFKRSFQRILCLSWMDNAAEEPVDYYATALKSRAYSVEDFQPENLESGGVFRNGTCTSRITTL

T1 sequence (P31391 whole entry): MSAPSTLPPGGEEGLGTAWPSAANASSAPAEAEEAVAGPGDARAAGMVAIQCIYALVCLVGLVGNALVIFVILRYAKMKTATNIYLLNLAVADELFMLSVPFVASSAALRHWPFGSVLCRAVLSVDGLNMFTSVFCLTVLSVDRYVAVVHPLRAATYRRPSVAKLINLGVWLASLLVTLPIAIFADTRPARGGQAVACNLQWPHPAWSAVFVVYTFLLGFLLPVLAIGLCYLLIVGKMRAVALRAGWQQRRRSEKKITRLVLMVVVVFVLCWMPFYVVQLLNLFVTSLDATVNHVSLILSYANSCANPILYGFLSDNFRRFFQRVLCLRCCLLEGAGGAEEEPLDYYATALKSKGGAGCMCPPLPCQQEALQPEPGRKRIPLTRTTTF

Row | Structure (SMILES) | EC50 (SSTR4 [1]) | IC50 (SSTR4 [2]) | IC50 (SSTR1) | SSTR4 Activity pEC50 (SSTR4 [1]) | SSTR4 Binding pIC50 (SSTR4 [2]) | SSTR1 Binding pIC50 (SSTR1)
1 | C[C@@H]1CN(C)C[C@H]1NC(=O)C(C)(C)COc1ncccc1C(F)(F)F (racemic) [Example 165, N-(trans-1,4-dimethylpyrrolidin-3-yl)-2,2-dimethyl-3-((3-(trifluoromethyl)pyridin-2-yl)oxy)propanamide] | 31.6 nM | 158 nM | 5.01 µM | – | – | –
2 | CC(C)(COc1ccccc1Cl)C(=O)N[C@H]1CCNC[C@@H]1F [Example 187, 3-(2-chlorophenoxy)-N-((3S,4S)-3-fluoropiperidin-4-yl)-2,2-dimethylpropanamide] | – | – | – | 8.8 | 8.4 | 4.8
3 | CN1CCC(NC(=O)C(C)(C)COc2ncccc2C2CC2)CC1 [Example 47, 3-((3-cyclopropylpyridin-2-yl)oxy)-2,2-dimethyl-N-(1-methylpiperidin-4-yl)propanamide] | – | – | – | 8.1 | 7.1 | 4.8
4 | CCc1ccccc1OCC(C)(C)C(=O)NC1CCN(C)CC1 [Example 72, 3-(2-ethylphenoxy)-2,2-dimethyl-N-(1-methylpiperidin-4-yl)propanamide] | – | – | – | 8.1 | 7.1 | 4.8
5 | C[C@H]1CNCC[C@@H]1NC(=O)C(F)(F)COc1ccccc1Cl [Example 216, 3-(2-chlorophenoxy)-2,2-difluoro-N-((3S,4S)-3-methylpiperidin-4-yl)propanamide] | – | – | – | 9.4 | 7.7 | 4.8
6 | Cc1ccc([C@@H]2CN(C)C[C@H]2NC(=O)C(C)(C)COc2ncccc2C(F)(F)F)cn1 (racemic) [Example 62, trans-2,2-dimethyl-N-(1-methyl-4-(6-methylpyridin-3-yl)pyrrolidin-3-yl)-3-((3-(trifluoromethyl)pyridin-2-yl)oxy)propanamide] | 15.8 nM | 200 nM | 0.251 µM | – | – | –
7 | CC(C)[C@@H]1CN(C)C[C@H]1NC(=O)C(C)(C)COc1ncccc1OC(F)(F)F (relative stereo) [Example 16, trans-N-(4-isopropyl-1-methylpyrrolidin-3-yl)-2,2-dimethyl-3-((3-(trifluoromethoxy)pyridin-2-yl)oxy)propanamide] | – | – | – | 7.8 | 7.2 | 5.5
8 | CN1CCC(NC(=O)C(C)(C)COc2ncccc2OC(F)(F)F)CC1 [Example 92, 2,2-dimethyl-N-(1-methylpiperidin-4-yl)-3-((3-(trifluoromethoxy)pyridin-2-yl)oxy)propanamide] | – | – | – | 7.7 | 6.8 | 4.8
9 | CN1CC[C@@H](NC(=O)C(C)(C)COc2ccccc2Br)C1 [Example 69, (R)-3-(2-bromophenoxy)-2,2-dimethyl-N-(1-methylpyrrolidin-3-yl)propanamide] | – | – | – | 8.4 | 7.2 | 5.2
10 | Cc1ccccc1OCC(C)(C)C(=O)NC1CCN(C)CC1 [Example 76, 2,2-dimethyl-N-(1-methylpiperidin-4-yl)-3-(o-tolyloxy)propanamide] | – | – | – | 7.7 | 6.7 | 4.7
11 | CN1CCC(NC(=O)C(C)(C)COc2ccccc2Br)CC1 [Example 67, 3-(2-bromophenoxy)-2,2-dimethyl-N-(1-methylpiperidin-4-yl)propanamide] | – | – | – | 8.1 | 7.4 | 5.1
12 | Cc1ccccc1[C@@H]1CN(C)CC[C@H]1NC(=O)C(C)(C)COc1ncccc1C(F)(F)F (relative stereo) [Example 161, 2,2-dimethyl-N-(trans-1-methyl-3-(o-tolyl)piperidin-4-yl)-3-((3-(trifluoromethyl)pyridin-2-yl)oxy)propanamide] | – | – | – | 9.1 | 7.7 | 6.5
13 | Cc1nn(C)cc1[C@@H]1CN(C)C[C@H]1NC(=O)C(C)(C)COc1ncccc1C(F)(F)F (relative stereo) [Example 25, trans-N-(4-(1,3-dimethyl-1H-pyrazol-4-yl)-1-methylpyrrolidin-3-yl)-2,2-dimethyl-3-((3-(trifluoromethyl)pyridin-2-yl)oxy)propanamide] | – | – | – | 8.3 | 7.0 | 6.4
14 | Cc1cccnc1OCC(C)(C)C(=O)N[C@@H]1CN(C)C[C@H]1c1cn(C)nc1C (relative stereo) [Example 23, trans-N-(4-(1,3-dimethyl-1H-pyrazol-4-yl)-1-methylpyrrolidin-3-yl)-2,2-dimethyl-3-((3-methylpyridin-2-yl)oxy)propanamide] | – | – | – | 8.0 | 6.6 | 5.8
15 | Cc1ccccc1[C@@H]1CNCC[C@H]1OC(=O)C(C)(C)COc1ncccc1C(F)(F)F (racemic) [Example 168, trans-3-(o-tolyl)piperidin-4-yl 2,2-dimethyl-3-((3-(trifluoromethyl)pyridin-2-yl)oxy)propanoate] | 25.1 nM | 158 nM | 15.8 µM | – | – | –
16 | Cc1cccnc1OCC(C)(C)C(=O)N[C@@H]1CN(C)C[C@H]1C (racemic) [Example 182, N-(trans-1,4-dimethylpyrrolidin-3-yl)-2,2-dimethyl-3-((3-methylpyridin-2-yl)oxy)propanamide] | 31.6 nM | 794 nM | 12.6 µM | – | – | –
17 | C[C@H]1CNCC[C@@H]1NC(=O)C(F)(F)COc1ncccc1OC(F)(F)F [Example 210, 2,2-difluoro-N-((3S,4S)-3-methylpiperidin-4-yl)-3-((3-(trifluoromethoxy)pyridin-2-yl)oxy)propanamide] | – | – | – | 9.1 | 7.6 | 4.5
18 | CN1CC[C@H](NC(=O)C(C)(C)COc2ncccc2C2CC2)[C@@H](F)C1 [Example 123, 3-((3-cyclopropylpyridin-2-yl)oxy)-N-((3S,4S)-3-fluoro-1-methylpiperidin-4-yl)-2,2-dimethylpropanamide] | – | – | – | 7.8 | 7.2 | 4.9
19 | C[C@@H]1C[C@H](NC(=O)C(F)(F)COc2ncccc2C2CC2)CCN1 [Example 211, 3-((3-cyclopropylpyridin-2-yl)oxy)-2,2-difluoro-N-((2R,4R)-2-methylpiperidin-4-yl)propanamide] | – | – | – | 8.9 | 7.2 | 4.8
20 | CN1CC[C@H](NC(=O)C(C)(C)COc2ncccc2OC(F)(F)F)[C@H](c2ccccc2)C1 (relative stereo) [Example 166, 2,2-dimethyl-N-(cis-1-methyl-3-phenylpiperidin-4-yl)-3-((3-(trifluoromethoxy)pyridin-2-yl)oxy)propanamide] | – | – | – | – | 7.4 | 6.2
21 | Cc1cnc(OCC(C)(C)C(=O)N[C@@H]2CCN(C)C[C@H]2C)c(C)c1 (single isomer, unassigned) [Example 31, trans-N-(1,3-dimethylpiperidin-4-yl)-3-((3,5-dimethylpyridin-2-yl)oxy)-2,2-dimethylpropanamide] | 25.1 nM | 251 nM | – | – | – | –
22 | CC[C@@H]1CN(C)CC[C@H]1NC(=O)C(C)(C)COc1ncccc1C(F)(F)F (single isomer, unassigned) [Example 144] | – | – | – | 8.7 | 8.0 | –
